Laboratory results reported in article PMC7865522, “Analyzing Kinase Similarity in Small Molecule and Protein Structural Space to Explore the Limits of Multi-Target Screening” (Molecules, 2021).

Experiments:
panel of 290 kinases = molecular target: panel of 290 kinases; set-up: method as in PMID 18183025; conditions: cited from earlier work
BRAF [1] = molecular target: T1, BRAF (Homo sapiens, UniProt P15056); test: DiscoverX KINOMEscan competition binding assay; conditions: compound 10 µM; lower values = higher affinity; below 35% = significant binding
T1 construct: purchased DiscoverX (KINOMEscan service); host or cells: E. coli BL21-derived host (T7 phage) or HEK-293
T1 sequence (P15056 whole entry): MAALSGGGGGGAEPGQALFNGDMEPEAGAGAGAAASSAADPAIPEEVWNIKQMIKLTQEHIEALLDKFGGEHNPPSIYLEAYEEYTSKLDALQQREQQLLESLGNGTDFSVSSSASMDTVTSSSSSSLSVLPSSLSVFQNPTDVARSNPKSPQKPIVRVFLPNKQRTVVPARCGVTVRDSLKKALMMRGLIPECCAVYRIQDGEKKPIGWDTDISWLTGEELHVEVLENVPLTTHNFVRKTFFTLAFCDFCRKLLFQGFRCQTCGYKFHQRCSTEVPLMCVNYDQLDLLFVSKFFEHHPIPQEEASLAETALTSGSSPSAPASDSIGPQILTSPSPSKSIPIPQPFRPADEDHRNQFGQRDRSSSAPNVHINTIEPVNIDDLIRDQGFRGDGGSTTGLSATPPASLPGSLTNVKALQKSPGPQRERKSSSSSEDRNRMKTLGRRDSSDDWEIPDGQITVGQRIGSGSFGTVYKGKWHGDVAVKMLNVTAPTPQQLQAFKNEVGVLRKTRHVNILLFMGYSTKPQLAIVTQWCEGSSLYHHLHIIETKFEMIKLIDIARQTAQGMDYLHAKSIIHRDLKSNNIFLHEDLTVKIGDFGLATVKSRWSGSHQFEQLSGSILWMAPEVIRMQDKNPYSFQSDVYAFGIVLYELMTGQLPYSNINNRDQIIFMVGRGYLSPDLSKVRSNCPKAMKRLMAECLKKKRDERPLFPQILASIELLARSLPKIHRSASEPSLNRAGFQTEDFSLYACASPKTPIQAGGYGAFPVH
In short: (§1)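 Single-point test at 10 µM against DNA-tagged kinase (phage or HEK-293 source) binding to an immobilized reference ligand. Remaining bead-bound kinase quantified by qPCR as % of control.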

CDK2 = molecular target: T2, CDK2 (Homo sapiens, UniProt P24941); test: DiscoverX KINOMEscan competition binding assay; conditions: compound 10 µM; lower values = higher affinity; below 35% = significant binding
T2 construct: purchased DiscoverX (KINOMEscan service); host or cells: E. coli BL21-derived host (T7 phage) or HEK-293
In short: as §1

EGFR [2] = molecular target: T3, EGFR (Homo sapiens, UniProt P00533); test: DiscoverX KINOMEscan competition binding assay; conditions: compound 10 µM; lower values = higher affinity; below 35% = significant binding
T3 construct: purchased DiscoverX (KINOMEscan service); host or cells: E. coli BL21-derived host (T7 phage) or HEK-293
T3 sequence (P00533 25-1210): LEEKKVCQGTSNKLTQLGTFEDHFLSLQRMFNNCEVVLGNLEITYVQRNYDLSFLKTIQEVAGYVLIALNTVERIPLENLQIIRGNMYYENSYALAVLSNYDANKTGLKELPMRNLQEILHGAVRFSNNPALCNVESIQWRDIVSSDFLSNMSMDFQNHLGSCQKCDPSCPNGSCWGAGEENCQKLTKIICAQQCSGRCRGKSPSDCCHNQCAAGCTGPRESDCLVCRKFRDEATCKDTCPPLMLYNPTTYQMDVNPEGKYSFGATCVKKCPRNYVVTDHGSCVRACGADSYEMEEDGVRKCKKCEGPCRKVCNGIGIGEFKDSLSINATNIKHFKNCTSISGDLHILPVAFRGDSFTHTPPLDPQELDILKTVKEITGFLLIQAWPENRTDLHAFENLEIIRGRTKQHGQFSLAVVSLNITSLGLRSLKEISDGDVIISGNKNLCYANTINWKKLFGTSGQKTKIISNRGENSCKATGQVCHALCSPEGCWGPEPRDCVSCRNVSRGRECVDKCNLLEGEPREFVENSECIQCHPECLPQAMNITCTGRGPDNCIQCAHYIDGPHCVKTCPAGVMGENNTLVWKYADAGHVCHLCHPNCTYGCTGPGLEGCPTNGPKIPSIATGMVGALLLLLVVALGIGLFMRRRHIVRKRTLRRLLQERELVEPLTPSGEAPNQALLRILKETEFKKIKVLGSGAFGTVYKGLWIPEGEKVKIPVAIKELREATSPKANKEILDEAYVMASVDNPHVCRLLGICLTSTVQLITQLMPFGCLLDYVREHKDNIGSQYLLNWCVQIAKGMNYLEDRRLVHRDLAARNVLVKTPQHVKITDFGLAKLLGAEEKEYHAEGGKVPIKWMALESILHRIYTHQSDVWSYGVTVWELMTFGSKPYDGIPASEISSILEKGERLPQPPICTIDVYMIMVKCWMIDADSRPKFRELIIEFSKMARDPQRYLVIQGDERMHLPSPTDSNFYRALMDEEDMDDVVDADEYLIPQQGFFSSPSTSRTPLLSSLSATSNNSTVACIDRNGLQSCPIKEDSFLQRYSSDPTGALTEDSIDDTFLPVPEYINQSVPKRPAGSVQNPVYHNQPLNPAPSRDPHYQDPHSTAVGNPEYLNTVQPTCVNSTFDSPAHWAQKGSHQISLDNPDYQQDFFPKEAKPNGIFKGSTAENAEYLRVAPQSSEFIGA
In short: as §1

ErbB2 [3] = molecular target: T4, ErbB2 (Homo sapiens, UniProt P04626); test: DiscoverX KINOMEscan competition binding assay; conditions: compound 10 µM; lower values = higher affinity; below 35% = significant binding
T4 construct: purchased DiscoverX (KINOMEscan service); host or cells: E. coli BL21-derived host (T7 phage) or HEK-293
T4 sequence (P04626 23-1255): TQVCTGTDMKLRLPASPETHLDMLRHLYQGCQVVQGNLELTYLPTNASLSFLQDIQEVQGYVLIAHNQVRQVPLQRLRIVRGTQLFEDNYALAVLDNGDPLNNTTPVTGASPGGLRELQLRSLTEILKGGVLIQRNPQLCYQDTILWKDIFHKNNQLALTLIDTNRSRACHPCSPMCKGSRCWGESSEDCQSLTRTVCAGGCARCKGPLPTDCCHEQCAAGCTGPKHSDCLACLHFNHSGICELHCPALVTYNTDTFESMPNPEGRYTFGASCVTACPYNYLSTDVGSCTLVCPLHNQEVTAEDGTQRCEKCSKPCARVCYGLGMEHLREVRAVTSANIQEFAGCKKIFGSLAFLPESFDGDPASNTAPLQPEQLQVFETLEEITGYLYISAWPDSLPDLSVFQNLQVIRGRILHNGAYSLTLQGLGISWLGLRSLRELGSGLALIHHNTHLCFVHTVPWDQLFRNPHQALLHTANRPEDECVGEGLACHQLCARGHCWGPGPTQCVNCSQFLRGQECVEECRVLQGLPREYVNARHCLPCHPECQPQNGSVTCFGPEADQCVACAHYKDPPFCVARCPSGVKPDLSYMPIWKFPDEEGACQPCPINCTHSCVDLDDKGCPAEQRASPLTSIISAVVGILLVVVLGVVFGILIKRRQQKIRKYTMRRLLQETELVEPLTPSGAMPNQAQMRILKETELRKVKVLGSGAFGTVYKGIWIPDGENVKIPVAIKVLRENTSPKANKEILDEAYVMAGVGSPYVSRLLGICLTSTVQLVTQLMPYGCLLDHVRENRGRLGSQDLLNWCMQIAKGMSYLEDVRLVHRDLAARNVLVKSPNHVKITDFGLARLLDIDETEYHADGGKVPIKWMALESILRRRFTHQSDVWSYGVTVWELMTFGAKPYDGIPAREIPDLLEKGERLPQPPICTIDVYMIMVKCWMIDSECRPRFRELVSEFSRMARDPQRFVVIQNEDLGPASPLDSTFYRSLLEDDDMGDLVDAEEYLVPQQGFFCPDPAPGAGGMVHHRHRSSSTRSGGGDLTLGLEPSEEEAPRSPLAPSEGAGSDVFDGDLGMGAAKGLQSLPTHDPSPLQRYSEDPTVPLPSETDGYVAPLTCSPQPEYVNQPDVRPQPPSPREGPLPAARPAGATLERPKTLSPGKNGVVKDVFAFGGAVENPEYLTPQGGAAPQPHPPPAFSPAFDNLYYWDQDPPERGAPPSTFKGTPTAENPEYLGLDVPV
In short: as §1

LCK = molecular target: T5, LCK (Homo sapiens, UniProt P06239); test: DiscoverX KINOMEscan competition binding assay; conditions: compound 10 µM; lower values = higher affinity; below 35% = significant binding
T5 construct: purchased DiscoverX (KINOMEscan service); host or cells: E. coli BL21-derived host (T7 phage) or HEK-293
In short: as §1

MET = molecular target: T6, MET (Homo sapiens, UniProt P08581); test: DiscoverX KINOMEscan competition binding assay; conditions: compound 10 µM; lower values = higher affinity; below 35% = significant binding
T6 construct: purchased DiscoverX (KINOMEscan service); host or cells: E. coli BL21-derived host (T7 phage) or HEK-293
In short: as §1

VEGFR2 = molecular target: T7, VEGFR2 (Homo sapiens, UniProt P35968); test: DiscoverX KINOMEscan competition binding assay; conditions: compound 10 µM; lower values = higher affinity; below 35% = significant binding
T7 construct: purchased DiscoverX (KINOMEscan service); host or cells: E. coli BL21-derived host (T7 phage) or HEK-293
In short: as §1

p38α = molecular target: T8, p38α (Homo sapiens, UniProt Q16539); test: DiscoverX KINOMEscan competition binding assay; conditions: compound 10 µM; lower values = higher affinity; below 35% = significant binding
T8 construct: purchased DiscoverX (KINOMEscan service); host or cells: E. coli BL21-derived host (T7 phage) or HEK-293
In short: as §1

BRAF [4] = molecular target: T1, BRAF; test: Eurofins in vitro kinase inhibition assay; assay type: biochemical; conditions: compound 20 µM; mean (SD); above 50% significant, 25-50% weak
In short: (§2)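 Compounds tested at 20 µM by a CRO. For EGFR, ErbB2 and BRAF, the kinase was incubated with ATP and a substrate analog and phosphorylation was measured. PI3K was read by HTRF as displacement of biotinylated PIP3 by PIP3 made from PIP2. Values are % inhibition of control activity, mean (SD).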

EGFR [5] = molecular target: T3, EGFR; test: Eurofins in vitro kinase inhibition assay; assay type: biochemical; conditions: compound 20 µM; mean (SD); above 50% significant, 25-50% weak
In short: as §2

ErbB2 [6] = molecular target: T4, ErbB2; test: Eurofins in vitro kinase inhibition assay; assay type: biochemical; conditions: compound 20 µM; mean (SD); above 50% significant, 25-50% weak
In short: as §2

PI3K [7] = molecular target: T9, PI3K (Homo sapiens, UniProt P42336); test: Eurofins in vitro kinase inhibition assay (HTRF, PIP3 displacement); assay type: biochemical; set-up: purchased Eurofins Cerep (contract assay); conditions: compound 20 µM; mean (SD); above 50% significant, 25-50% weak
In short: as §2
Target sequence in this assay (P42336 whole entry): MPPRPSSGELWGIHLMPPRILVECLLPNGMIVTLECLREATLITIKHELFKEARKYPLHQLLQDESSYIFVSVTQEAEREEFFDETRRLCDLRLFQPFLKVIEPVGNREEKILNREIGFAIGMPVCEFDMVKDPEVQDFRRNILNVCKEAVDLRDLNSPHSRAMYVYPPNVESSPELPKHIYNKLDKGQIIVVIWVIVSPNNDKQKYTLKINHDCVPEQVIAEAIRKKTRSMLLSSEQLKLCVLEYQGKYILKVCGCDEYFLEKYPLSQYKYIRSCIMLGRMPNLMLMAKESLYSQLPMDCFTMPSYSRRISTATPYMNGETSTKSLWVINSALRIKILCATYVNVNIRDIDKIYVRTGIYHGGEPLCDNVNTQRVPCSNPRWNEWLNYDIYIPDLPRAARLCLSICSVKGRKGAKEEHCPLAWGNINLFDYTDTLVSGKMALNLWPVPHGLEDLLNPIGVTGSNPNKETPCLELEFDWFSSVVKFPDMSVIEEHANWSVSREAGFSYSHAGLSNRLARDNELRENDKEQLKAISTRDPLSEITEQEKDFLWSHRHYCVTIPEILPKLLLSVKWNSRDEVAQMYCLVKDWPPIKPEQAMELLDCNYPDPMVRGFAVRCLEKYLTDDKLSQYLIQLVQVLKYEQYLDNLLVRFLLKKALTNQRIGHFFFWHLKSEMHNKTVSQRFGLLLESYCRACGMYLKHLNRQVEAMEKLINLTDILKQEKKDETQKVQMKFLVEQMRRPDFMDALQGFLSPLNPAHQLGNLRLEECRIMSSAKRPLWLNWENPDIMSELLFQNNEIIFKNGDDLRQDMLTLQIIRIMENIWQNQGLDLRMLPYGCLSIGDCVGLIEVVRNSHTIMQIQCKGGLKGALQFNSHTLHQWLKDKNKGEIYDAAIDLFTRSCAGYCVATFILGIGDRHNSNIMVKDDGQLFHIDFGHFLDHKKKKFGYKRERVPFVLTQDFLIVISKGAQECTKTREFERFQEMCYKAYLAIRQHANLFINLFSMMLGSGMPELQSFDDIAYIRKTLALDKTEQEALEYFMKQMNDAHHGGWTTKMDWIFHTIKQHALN
Target sequence in this assay (P27986 whole entry partner): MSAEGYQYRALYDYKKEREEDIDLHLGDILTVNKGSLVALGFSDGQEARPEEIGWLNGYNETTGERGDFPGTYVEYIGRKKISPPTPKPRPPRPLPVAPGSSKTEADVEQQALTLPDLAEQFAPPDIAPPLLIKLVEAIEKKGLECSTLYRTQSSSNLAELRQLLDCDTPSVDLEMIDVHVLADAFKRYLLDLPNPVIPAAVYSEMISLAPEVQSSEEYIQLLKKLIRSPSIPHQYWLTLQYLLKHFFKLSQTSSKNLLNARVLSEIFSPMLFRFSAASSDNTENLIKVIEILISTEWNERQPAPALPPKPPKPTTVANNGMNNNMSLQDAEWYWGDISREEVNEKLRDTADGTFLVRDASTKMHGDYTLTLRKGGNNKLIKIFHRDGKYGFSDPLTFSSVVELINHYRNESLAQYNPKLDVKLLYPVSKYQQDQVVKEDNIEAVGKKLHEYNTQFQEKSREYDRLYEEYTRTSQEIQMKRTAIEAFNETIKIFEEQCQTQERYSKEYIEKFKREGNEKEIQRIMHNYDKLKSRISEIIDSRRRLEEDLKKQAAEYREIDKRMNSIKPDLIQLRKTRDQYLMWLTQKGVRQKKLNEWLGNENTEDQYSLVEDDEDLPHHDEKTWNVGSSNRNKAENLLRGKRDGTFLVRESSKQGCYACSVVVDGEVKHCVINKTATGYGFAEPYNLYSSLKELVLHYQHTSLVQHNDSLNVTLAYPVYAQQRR

PI3K [8] = molecular target: T9, PI3K; test: DiscoverX KINOMEscan competition binding assay; set-up: purchased DiscoverX (KINOMEscan service); host or cells: E. coli BL21-derived host (T7 phage) or HEK-293; conditions: compound 10 µM; lower values = higher affinity; below 35% = significant binding
In short: as §1
Target sequence in this assay (P42336 whole entry): as the sequence (P42336 whole entry) above

Structure (SMILES) | kinase binding spectrum (panel of 290 kinases; TKs) | fraction of kinases bound in a panel (panel of 290 kinases; panel of 290 kinases) | % control, BRAF (DiscoverX) (BRAF [1]) | % control, CDK2 (DiscoverX) (CDK2) | % control, EGFR (DiscoverX) (EGFR [2]) | % control, ErbB2 (DiscoverX) (ErbB2 [3]) | % control, LCK (DiscoverX) (LCK) | % control, MET (DiscoverX) (MET) | % control, VEGFR2 (DiscoverX) (VEGFR2) | % control, p38α (DiscoverX) (p38α) | % inhibition of control activity, BRAF (Eurofins) (BRAF [4]) | % inhibition of control activity, EGFR (Eurofins) (EGFR [5]) | % inhibition of control activity, ErbB2 (Eurofins) (ErbB2 [6]) | % inhibition of control activity, PI3K (Eurofins) (PI3K [7]) | % control, PI3K (DiscoverX) (PI3K [8])
Cc1nc(Nc2ncc(C(=O)Nc3c(C)cccc3Cl)s2)cc(N2CCN(CCO)CC2)n1 [dasatinib] | binds to a broad spectrum of TKs with high affinity | – | – | – | – | – | – | – | – | – | – | – | – | – | –
CCN(CC)CCNC(=O)c1c(C)[nH]c(/C=C2\C(=O)Nc3ccc(F)cc32)c1C [Sunitinib] | – | more than 50% | – | – | – | – | – | – | – | – | – | – | – | – | –
COCCCNC(=O)c1nc2c3c4c(sc3ncn2n1)COC(C)(C)C4 [DS11689] | – | – | 88 % control | 100 % control | 100 % control | 99 % control | 100 % control | 99 % control | 100 % control | 100 % control | -8.3 (20.8) % inhibition | 18.1 (7.9) % inhibition | 0.1 (2.1) % inhibition | -0.2 (0.4) % inhibition | 99 % control
Cc1[nH]c2nc3c(c(=O)n(Cc4ccccc4)c(=O)n3C)n2c1C [DS62156] | – | – | 95 % control | 100 % control | 90 % control | 96 % control | 100 % control | 87 % control | 100 % control | 97 % control | -6.3 (1.6) % inhibition | 16.6 (0.4) % inhibition | 3.1 (3.3) % inhibition | 1.5 (5.8) % inhibition | 66 % control
